Results from ChEMBL document CHEMBL1201862, “PubChem BioAssay data set” (2004).
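Exposure lasted 48 hours, with cells grown in 96-well plates and compounds tested at five concentrations. At the GI50, growth is halved.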 The source made the active and inactive calls. Cut-off read from the data, not from the text of the source: active = GI50 up to about 1.1 µM and inactive = higher.

Legend:
Test in all cases: DTP human tumour cell line panel, 48 h
[1] = test system: SNB-78
[2] = test system: RXF 631
[3] = test system: LXFL 529
[4] = test system: HOP-18
[5] = test system: DMS-273
[6] = test system: DLD-1
[7] = test system: M19-MEL
[8] = test system: KM-20L2
[9] = test system: XF498

Measured: GI50

COc1ccc(C(=O)Cc2ccc(Br)cc2)cc1OC
inactive: [1] > 100 µM | [2] 57.4 µM | [3] > 100 µM | [4] > 100 µM | [5] > 100 µM | [6] > 100 µM | [7] > 100 µM | [8] > 100 µM | [9] 31.7 µM

CN(C)C(=N)NC(=S)N(C)C
inactive: [1] > 100 µM | [2] > 100 µM | [3] > 100 µM | [4] > 100 µM | [5] > 100 µM | [6] > 100 µM | [7] > 100 µM | [8] > 100 µM | [9] > 100 µM
